Where two headings read alike, the source gives them in different places.

Two compounds from US20210395226A1, “SUBSTITUTED ARYL COMPOUND AND PREPARATION METHOD THEREFOR AND USE THEREOF” (SICHUAN KELUN-BIOTECH BIOPHARMACEUTICAL CO., LTD., priority 2018, published 2021) can be followed below.

For series [1], the target named is T1, Adenosine A1 receptor (human) membrane (Homo sapiens, UniProt P30542).
T1 construct: purchased PerkinElmer ES-010-M400UA
T1 sequence (P30542 1-326): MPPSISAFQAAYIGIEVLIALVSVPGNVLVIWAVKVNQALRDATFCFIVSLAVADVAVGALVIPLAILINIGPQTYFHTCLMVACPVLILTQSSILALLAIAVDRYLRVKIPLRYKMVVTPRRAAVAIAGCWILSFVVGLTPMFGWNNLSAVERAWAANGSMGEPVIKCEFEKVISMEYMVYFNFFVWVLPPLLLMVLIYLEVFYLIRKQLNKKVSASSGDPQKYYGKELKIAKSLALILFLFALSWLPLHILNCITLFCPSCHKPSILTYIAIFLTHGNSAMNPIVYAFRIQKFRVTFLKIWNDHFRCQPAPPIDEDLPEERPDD
As to the kind of experiment: Determination of competitive inhibition constant (Ki) for adenosine A1 receptor, [3H]-DPCPX radioligand. Format: binding. The conditions noted are these: 1.0 nM [3H]-DPCPX. In outline:
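Human A1 receptor membranes (2.5 μg/well) incubated with 1.0 nM [3H]-DPCPX and test compound for 1 h at room temperature in HEPES/MgCl2/CaCl2/NaCl buffer, pH 7.4; 1000 nM CGS-15943 defined low control. Bound radioactivity collected on PEI-treated GF/C filters and counted; IC50 converted to Ki via Cheng–Prusoff using ligand Kd.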

A short description of series [2]: Pharmacokinetics (PK) and distribution in brain tissue in rats. Format: in vivo, male SD rats. The conditions noted are these: for bioavailability / Cmax / AUC(0-t): male, SD; for bioavailability: plasma, oral 5 mg/kg compared with intravenous 1 mg/kg; for bioavailability / Plasma AUClast/brain AUClast: rat; for Cmax / AUC(0-t): rat plasma; for AUClast (brain): rat brain tissue. Here is the method: Test Example 3: Study on Pharmacokinetics (PK) and Distribution in Brain Tissue in Rats
The compounds of the present application were administered to male SD rats by intravenous (IV) and intragastric (PO) respectively to investigate the pharmacokinetic characteristics. The dosages of IV and PO were 1 mg/kg and 5 mg/kg, respectively. The solvent for IV was a mixture of 5% DMSO, 5% Solutol (polyethylene glycol 15-hydroxystearate) and 90% saline, and the solvent for PO was 0.5% MC (methyl cellulose sodium). Before IV administration (0 h) and at 0.083 h, 0.25 h, 0.5 h, 1 h, 2 h, 4 h, 6 h, 8 h and 24 h time points after administration, blood samples were collected; before PO administration (0 h) and at 0.25 h, 0.5 h, 1 h, 2 h, 4 h, 6 h, 8 h and 24 h time points after administration, blood samples were collected; the blood samples were anticoagulated with EDTA.K2, and centrifuged to obtain plasma samples. For Compound 11, brain tissue samples were taken and homogenized at 0.25 h, 0.5 h, 1 h, 4 h and 8 h; for Compounds 19 and 32, and brain tissue samples were taken and homogenized at 0.25 h, 0.5 h, 1 h and 8 h (three SD rats were selected for the experiment of distribution in brain tissue at each time point), and the resulting brain tissue homogenate samples were stored at −80° C. The plasma samples and brain tissue homogenate samples were subjected to precipitation of protein, and then LC-MS/MS analysis was performed.
Pharmacokinetic parameters were calculated by means of non-compartmental model by using WinNonlin 6.3 software.

Where [3] appears, read: PO, 5 mg/kg, read-out: AUClast (plasma).

As a reminder, the Ki is a dissociation constant, usually derived from enzyme kinetics or from competition with a known ligand. Read a high Ki as weaker binding. One may read the bioavailability as the share of a dose that reaches the circulation, judged against a reference dose that is usually intravenous. High values mean good availability, low ones poor availability. The term Cmax denotes the peak of the concentration-time curve. The compound `Cc1ncnc2ccc(-c3cnc(NC(=O)N4CCOCC4)nc3-c3ccc(F)cc3)cc12` [Compound 11, N-(4-(4-fluorophenyl)-5-(4-methylquinazolin-6-yl)pyrimidin-2-yl) morpholine-4-carboxamide] showed a Ki in series [1] of 204 nM. Further, the bioavailability in series [2] amounted to 65.3%. The same compound returned a peak concentration (Cmax) in series [2] (IV, 1 mg/kg) of 1310 ng/mL. Moreover, the AUC(0-t) in series [2] (IV, 1 mg/kg, read-out: AUClast) is 985 ng·h/mL. In addition, the AUC(0-t) in series [2] (setting [3]) is 3220 ng·h/mL. In series [2] (PO, 5 mg/kg), the “AUClast (brain)” value was found to be 11.4 ng·h/g and the “Plasma AUClast/brain AUClast” value is 282/1.
In series [1], `Cc1cc(-c2cnc(NC(=O)N3CCOCC3)nc2-c2ccc(F)cc2)cc(Cl)n1` [Compound 19, N-(5-(2-chloro-6-methylpyridin-4-yl)-4-(4-fluorophenyl)pyrimidin-2-yl) morpholine-4-carboxamide] returned a Ki of 1400 nM. The compound further registered a bioavailability in series [2] of 86.8%. In series [2] (IV, 1 mg/kg), this compound yielded a Cmax of 1150 ng/mL. Further, in series [2] (IV, 1 mg/kg, read-out: AUClast), the AUC(0-t) came to 2630 ng·h/mL. In series [2] (setting [3]), the AUC(0-t) worked out at 11400 ng·h/mL. Moreover, in series [2] (PO, 5 mg/kg), the “AUClast (brain)” value was 70.2 ng·h/g and the “Plasma AUClast/brain AUClast” value is on record as 163/1.
